Data on four molecules can be found in patent publication US20260355180A1, “COMPOSITIONS AND METHODS FOR SPLICEOSOME-TARGETED THERAPIES” (Institute for Cancer Research d/b/a The Research Institute …, priority 2022, published 2026).

One experiment relates to ZBP1 reconstituted MEF. Nature of the experiment: Rescue of PlaB-mediated cell death by RIPK3 inhibitor. In kind it is cell-based, mouse. Conditions: 2.5 nM PlaB, 18 hours, with RIPK3 inhibitor. On the procedure: FIG. 5A-5E: SF3B1 perturbation upregulates A-RNA and Z-nucleic acids in MEFs. (FIG. 5A) 5 nM of PlaB induces A-RNA and Z-Nucleic acids in ΔZBP1 MEF cells. (FIG. 5B) Quantification of A-RNA and Z-Nucleic acids. […] Plots of signal intensity are mean±SEM, two-tailed unpaired Student's t test *p<0.05, ***p<0.001, ****p<0.0001. 18 hours of PlaB treatment for IF, WB and rescue experiments. IF: 5 nM PlaB, WB and rescue experiments: 2.5 nM PlaB.
Since induction of Z-nAs can result in ZBP1-dependent necroptosis, we analyzed induction of necroptosis in necroptotic competent MEFs using spliceosome inhibition. […] We also determined that MEFs ΔZBP1, WT, and Flag-ZBP1 cells treated with PlaB began dying within 24hours after treatment. With MEF Flag-ZBP1 cells showing only 20% survival after 24 hours (FIG. 16).

A further experiment deals with H82 cells. Nature of the experiment: Restoration of cell survival by RIPK1 or caspase inhibition, H82. In kind it is cell-based. Conditions: H82 treated with PlaB plus inhibitor. How it is done: (§1) FIG. 8A-8B: Spliceosome Perturbation induces RIPK1-dependent apoptosis. (FIG. 8A) H82 and H446 cells were treated with PlaB, PlaB+Z-vad, PlaB+R3i, and PlaB+Z-Vad+R3i. H82 and H446 cells were treated with PlaB, PlaB+Z-vad, and PlaB+Necl.
(§2) In addition, our CRISPR-Cas9 KO of RIPK1 also rescues SCLC cell lines from PlaB induced toxicity.

In experiment [1] the test system is H446 cells. The experiment in a line: Restoration of cell survival by RIPK1 or caspase inhibition, H446. In kind it is cell-based, human. The conditions noted are these: H446 treated with PlaB plus inhibitor. On the procedure: as §1, §2
The test system of experiment [2] is H446 cells. Nature of the experiment: Immunofluorescence of A-RNA (J2) and Z-NA (Z22), H446. The conditions noted are these: low dose. The class given is cell-based, human. The text has this:
FIG. 4A-4C: SF3B1 perturbation increases dsRNA and Z-nucleic acid levels in treated cells. […] (FIG. 4B) Quantification of A-RNA and Z-Nucleic acids. (FIG. 4C) Western blot showing induction of cleaved-PARP, pH2AX, and ZBP1, and the reduction of RIPK1 protein levels. Plots of signal intensity are mean±SEM, two-tailed unpaired Student's t test **p<0.01, ****p<0.0001.
Our observations led us to explore what caused the elevated IFN response. We used an immunofluorescence (IF) technique to determine if A-RNA was increased after PlaB treatment.

Entries after “also recorded” stand apart in the source; their conditions may differ. Residues, ends and D or L forms follow the SMILES beside them. *: point of attachment. Cbz = O=C(OCc1ccccc1)*; CH2F = FC*

Take `Cc1cc(-c2cnc(N)c3c(-c4ccc5scnc5c4)csc23)n(C)n1` [GSK-843]: in the experiment on ZBP1 reconstituted MEF, the “rescue of PlaB-mediated cell death (necroptosis)” value is “completely rescued; also recorded: successfully rescue”.
On to `CN1C(=O)C(Cc2c[nH]c3ccccc23)NC1=S` (stereo not shown) [Nec-I, necrostatin I], for which the cell survival entry in the experiment with H82 cells and in the experiment with H446 cells [1] was “significantly restore cell survival” throughout.
Take `COC(=O)C[C@H](NC(=O)[C@H](C)NC(=O)[C@@H](NC(=O)OCc1ccccc1)C(C)C)C(=O)CF` [Z-Vad FMK] (Cbz-Val-Ala-Asp(OMe)-CH2F): the cell survival entry in the experiment with H82 cells and in the experiment with H446 cells [1] was “significantly restore cell survival” each time.
Take `NS(=O)(=O)c1ccc(S(=O)(=O)Nc2cccc3c(Cl)c[nH]c23)cc1` [indisulam]: the “accumulation of A-RNA” value with H446 cells [2] (J2 antibody) is “induces accumulation”. The “accumulation of Z-Nucleic acids” value in the experiment with H446 cells [2] (Z22 antibody) is given as “induces accumulation”.
